What was measured:
Type in all cases: in vivo
[1] = test system: velvetleaf (Abutilon theophrasti, ABT); assay: Pre-emerge test, velvetleaf; conditions: 250 g ai/ha, 14 days after application, rating scale 0-100 (0 no damage, 100 complete death)
Procedure, shortened: (§1)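 Using a track sprayer with flat fan nozzle, acetone solutions were applied at 8–1000 g ai/ha to sandy loam pots sown one day before. Plant injury was rated visually 0–100 after 14 days.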

[2] = test system: ivyleaf morningglory (Ipomoea hederacea, IPH); assay: Pre-emerge test, ivyleaf morningglory; conditions: 250 g ai/ha, 14 days after application, rating scale 0-100 (0 no damage, 100 complete death)
Procedure, shortened: as §1

[3] = test system: velvetleaf (Abutilon theophrasti, ABT); assay: Post-emerge test, velvetleaf; conditions: 250 g ai/ha, 14 days after application, rating scale 0-100 (0 no damage, 100 complete death)
Procedure, shortened: (§2)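 Each score is a 0-100 visual rating made 14 days post-spray, with 100 meaning all plants dead. Application was post-emergence at the 2-3 leaf stage, 8-1000 g ai/ha in acetone plus 0.25% v/v surfactant.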

[4] = test system: soybean (Glycine max L., var. Pella 86, SOY); assay: Pre-emerge test, crop damage soybean
Procedure, shortened: (§3)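 Pots (10 cm, sandy loam mix) were seeded one day ahead of spraying. Test materials, dissolved in acetone, went on at 8–1000 g ai/ha in a 187 l/ha spray volume. Damage was scored 14 days later from 0 (none) to 100 (total kill).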

[5] = test system: johnsongrass (Sorghum halepense, SOH); assay: Pre-emerge test, johnsongrass; conditions: 250 g ai/ha, 14 days after application, rating scale 0-100 (0 no damage, 100 complete death)
Procedure, shortened: as §1

[6] = test system: redroot pigweed (Amaranthus retroflexus, AMR); assay: Post-emerge test, redroot pigweed; conditions: 250 g ai/ha, 14 days after application, rating scale 0-100 (0 no damage, 100 complete death)
Procedure, shortened: as §2

[7] = test system: large crabgrass (Digitaria sanguinalis, DIS); assay: Pre-emerge test, large crabgrass; conditions: 250 g ai/ha, 14 days after application, rating scale 0-100 (0 no damage, 100 complete death)
Procedure, shortened: as §1

[8] = test system: sicklepod (Cassia obtusifolia, CAO); assay: Post-emerge test, sicklepod; conditions: 250 g ai/ha, 14 days after application, rating scale 0-100 (0 no damage, 100 complete death)
Procedure, shortened: as §2

[9] = test system: green foxtail (Setaria viridis, SEV); assay: Pre-emerge test, green foxtail; conditions: 250 g ai/ha, 14 days after application, rating scale 0-100 (0 no damage, 100 complete death)
Procedure, shortened: as §1

[10] = test system: wheat (Triticum aestivum); assay: Post-emerge test, crop damage wheat
Procedure, shortened: as §2

[11] = test system: cocklebur (Xanthium strumariunt, XAS); assay: Post-emerge test, cocklebur; conditions: 250 g ai/ha, 14 days after application, rating scale 0-100 (0 no damage, 100 complete death)
Procedure, shortened: as §2

[12] = test system: wheat (Triticum aestivum); assay: Pre-emerge test, crop damage wheat
Procedure, shortened: as §3

[13] = test system: barnyardgrass (Echinachloa crus-galli, ECC); assay: Post-emerge test, barnyardgrass; conditions: 250 g ai/ha, 14 days after application, rating scale 0-100 (0 no damage, 100 complete death)
Procedure, shortened: as §2

[14] = test system: field corn (Zea mays L., var. Dekalb 535, CORN); assay: Pre-emerge test, crop damage field corn
Procedure, shortened: as §3

[15] = test system: ivyleaf morningglory (Ipomoea hederacea, IPH); assay: Post-emerge test, ivyleaf morningglory; conditions: 250 g ai/ha, 14 days after application, rating scale 0-100 (0 no damage, 100 complete death)
Procedure, shortened: as §2

[16] = test system: redroot pigweed (Amaranthus retroflexus, AMR); assay: Pre-emerge test, redroot pigweed; conditions: 250 g ai/ha, 14 days after application, rating scale 0-100 (0 no damage, 100 complete death)
Procedure, shortened: as §1

[17] = test system: field corn (Zea mays L., var. Dekalb 535, CORN); assay: Post-emerge test, crop damage field corn
Procedure, shortened: as §2

[18] = test system: johnsongrass (Sorghum halepense, SOH); assay: Post-emerge test, johnsongrass; conditions: 250 g ai/ha, 14 days after application, rating scale 0-100 (0 no damage, 100 complete death)
Procedure, shortened: as §2

[19] = test system: soybean (Glycine max L., var. Pella 86, SOY); assay: Post-emerge test, crop damage soybean
Procedure, shortened: as §2

[20] = test system: lambsquarters (Chenopodium album, CHA); assay: Post-emerge test, lambsquarters; conditions: 250 g ai/ha, 14 days after application, rating scale 0-100 (0 no damage, 100 complete death)
Procedure, shortened: as §2

[21] = test system: cocklebur (Xanthium strumariunt, XAS); assay: Pre-emerge test, cocklebur; conditions: 250 g ai/ha, 14 days after application, rating scale 0-100 (0 no damage, 100 complete death)
Procedure, shortened: as §1

[22] = test system: green foxtail (Setaria viridis, SEV); assay: Post-emerge test, green foxtail; conditions: 250 g ai/ha, 14 days after application, rating scale 0-100 (0 no damage, 100 complete death)
Procedure, shortened: as §2

[23] = test system: lambsquarters (Chenopodium album, CHA); assay: Pre-emerge test, lambsquarters; conditions: 250 g ai/ha, 14 days after application, rating scale 0-100 (0 no damage, 100 complete death)
Procedure, shortened: as §1

[24] = test system: upland rice (Oryza sp., var.Tebonnet, RICE); assay: Post-emerge test, crop damage upland rice
Procedure, shortened: as §2

[25] = test system: sicklepod (Cassia obtusifolia, CAO); assay: Pre-emerge test, sicklepod; conditions: 250 g ai/ha, 14 days after application, rating scale 0-100 (0 no damage, 100 complete death)
Procedure, shortened: as §1

[26] = test system: upland rice (Oryza sp., var.Tebonnet, RICE); assay: Pre-emerge test, crop damage upland rice
Procedure, shortened: as §3

[27] = test system: common ragweed (Ambrosia artemisiifolia L., AML); assay: Pre-emerge test, common ragweed; conditions: 250 g ai/ha, 14 days after application, rating scale 0-100 (0 no damage, 100 complete death)
Procedure, shortened: as §1

[28] = test system: barnyardgrass (Echinachloa crus-galli, ECC); assay: Pre-emerge test, barnyardgrass; conditions: 250 g ai/ha, 14 days after application, rating scale 0-100 (0 no damage, 100 complete death)
Procedure, shortened: as §1

[29] = test system: common ragweed (Ambrosia artemisiifolia L., AML); assay: Post-emerge test, common ragweed; conditions: 250 g ai/ha, 14 days after application, rating scale 0-100 (0 no damage, 100 complete death)
Procedure, shortened: as §2

[30] = test system: large crabgrass (Digitaria sanguinalis, DIS); assay: Post-emerge test, large crabgrass; conditions: 250 g ai/ha, 14 days after application, rating scale 0-100 (0 no damage, 100 complete death)
Procedure, shortened: as §2

[31] = pre-emerge, 250 g ai/ha, 14 days after application, rating scale 0-100 (0 no damage, 100 complete death)
[32] = post-emerge, 250 g ai/ha, 14 days after application, rating scale 0-100 (0 no damage, 100 complete death)
[33] = var. Pella 86, Glycine max (soybean), in vivo, 14 days
[34] = Triticum aestivum (wheat), in vivo, 14 days
[35] = var. Dekalb 535, Zea mays (field corn), in vivo, 14 days
[36] = var. Tebonnet, Oryza sp. (upland rice), in vivo, 14 days

Row | Compound | Pre-emerge Herbicidal Activity ABT (phytotoxicity rating) [1] | Pre-emerge Herbicidal Activity IPH (phytotoxicity rating) [2] | Post-emerge Herbicidal Activity ABT (phytotoxicity rating) [3] | Pre-emerge Herbicidal Activity SOH (phytotoxicity rating) [5] | Post-emerge Herbicidal Activity AMR (phytotoxicity rating) [6] | Pre-emerge Herbicidal Activity DIS (phytotoxicity rating) [7] | Post-emerge Herbicidal Activity CAO (phytotoxicity rating) [8] | Pre-emerge Herbicidal Activity SEV (phytotoxicity rating) [9] | Post-emerge Herbicidal Activity XAS (phytotoxicity rating) [11] | Post-emerge Herbicidal Activity ECC (phytotoxicity rating) [13] | Post-emerge Herbicidal Activity IPH (phytotoxicity rating) [15] | Pre-emerge Herbicidal Activity AMR (phytotoxicity rating) [16] | Post-emerge Herbicidal Activity SOH (phytotoxicity rating) [18] | Post-emerge Herbicidal Activity CHA (phytotoxicity rating) [20] | Pre-emerge Herbicidal Activity XAS (phytotoxicity rating) [21] | Post-emerge Herbicidal Activity SEV (phytotoxicity rating) [22] | Pre-emerge Herbicidal Activity CHA (phytotoxicity rating) [23] | Pre-emerge Herbicidal Activity CAO (phytotoxicity rating) [25] | Pre-emerge Herbicidal Activity AML (phytotoxicity rating) [27] | Pre-emerge Herbicidal Activity ECC (phytotoxicity rating) [28] | other results
1 | Cn1nc(-c2c(F)cc3c4c2NC(=O)C(c2ccccc2)N4C(=O)CO3)c(Cl)c1OC(F)F (stereo not drawn) [1-33] | 100 | 70 | 100 | 70 | 99 | 100 | 60 | 99 | 70 | 65 | 98 | 100 | 65 | 99 | 75 | 95 | 100 | 65 | 100 | 55 | Pre-emerge crop damage SOY (phytotoxicity rating) [4, 31]: 15; Post-emerge crop damage WHEAT (phytotoxicity rating) [10, 32]: 65; Pre-emerge crop damage WHEAT (phytotoxicity rating) [12, 31]: 10; Pre-emerge crop damage CORN (phytotoxicity rating) [14, 31]: 0; Post-emerge crop damage CORN (phytotoxicity rating) [17, 32]: 25; Post-emerge crop damage SOY (phytotoxicity rating) [19, 32]: 60; Post-emerge crop damage RICE (phytotoxicity rating) [24, 32]: 95; Pre-emerge crop damage RICE (phytotoxicity rating) [26, 31]: 10; Post-emerge Herbicidal Activity AML (phytotoxicity rating) [29]: 70; Post-emerge Herbicidal Activity DIS (phytotoxicity rating) [30]: 25
2 | O=C1CN2C(=O)COc3cc(F)c(N4C(=O)C5=C(CCCC5)C4=O)c(c32)N1 [1-37, 9-Flouro-8-(4,5,6,7-tetrahydro-2H-isoindole-1,3-dione-2-yl)-5H-pyrazino[1,2,3de]-1,4-benzoxazine-3,6(2H, 7H)-dione] | 60 | 85 | 100 | 25 | 100 | 40 | 15 | 0 | 95 | 60 | 100 | 100 | 50 | 85 | 35 | 75 | 100 | 40 | 98 | 15 | Pre-emerge crop damage SOY (phytotoxicity rating) [4, 31]: 10; Post-emerge crop damage WHEAT (phytotoxicity rating) [10, 32]: 10; Pre-emerge crop damage WHEAT (phytotoxicity rating) [12, 31]: 20; Pre-emerge crop damage CORN (phytotoxicity rating) [14, 31]: 15; Post-emerge crop damage CORN (phytotoxicity rating) [17, 32]: 35; Post-emerge crop damage SOY (phytotoxicity rating) [19, 32]: 55; Post-emerge crop damage RICE (phytotoxicity rating) [24, 32]: 80; Pre-emerge crop damage RICE (phytotoxicity rating) [26, 31]: 20; Post-emerge Herbicidal Activity AML (phytotoxicity rating) [29]: 70; Post-emerge Herbicidal Activity DIS (phytotoxicity rating) [30]: 0
3 | C[C@H]1Oc2cc(F)c(-c3nn(C)c(C(F)(F)F)c3Cl)c3c2N(CC(=O)N3)C1=O [1-48, 8-[4-Chloro-1-methyl-5-(trifluoromethyl)-1H-pyrazol-3-yl]-9-fluoro-2-R-methyl-5H-pyrazino[1,2,3-de]-1,4-benzoxazine-3,6(2H, 7H)-dione] | 100 | 100 | 100 | 100 | 100 | 100 | 65 | 100 | 100 | 95 | 100 | 100 | 30 | 100 | 60 | 98 | 100 | 100 | 99 | 100 | Pre-emerge crop damage SOY (phytotoxicity rating) [4, 33]: 40; Post-emerge crop damage WHEAT (phytotoxicity rating) [10, 34]: 0; Pre-emerge crop damage WHEAT (phytotoxicity rating) [12, 34]: 25; Pre-emerge crop damage CORN (phytotoxicity rating) [14, 35]: 70; Post-emerge crop damage CORN (phytotoxicity rating) [17, 35]: 10; Post-emerge crop damage SOY (phytotoxicity rating) [19, 33]: 65; Post-emerge crop damage RICE (phytotoxicity rating) [24, 36]: 60; Pre-emerge crop damage RICE (phytotoxicity rating) [26, 36]: 55; Post-emerge Herbicidal Activity AML (phytotoxicity rating) [29]: 80; Post-emerge Herbicidal Activity DIS (phytotoxicity rating) [30]: 50
4 | C[C@@H]1Oc2cc(F)c(-c3nn(C)c(C(F)(F)F)c3Cl)c3c2N(CC(=O)N3)C1=O [1-49, 8-[4-Chloro-1-methyl-5-(trifluoromethyl)-1H-pyrazol-3-yl]-9-fluoro-2-S-methyl-5H-pyrazino[1,2,3-de]-1,4-benzoxazine-3,6(2H, 7H)-dione] | 100 | 100 | 100 | 100 | 100 | 100 | 100 | 100 | 100 | 100 | 100 | 100 | 65 | 100 | 85 | 100 | 100 | 100 | 100 | 100 | Pre-emerge crop damage SOY (phytotoxicity rating) [4, 31]: 50; Post-emerge crop damage WHEAT (phytotoxicity rating) [10, 32]: 50; Pre-emerge crop damage WHEAT (phytotoxicity rating) [12, 31]: 60; Pre-emerge crop damage CORN (phytotoxicity rating) [14, 31]: 70; Post-emerge crop damage CORN (phytotoxicity rating) [17, 32]: 35; Post-emerge crop damage SOY (phytotoxicity rating) [19, 32]: 80; Post-emerge crop damage RICE (phytotoxicity rating) [24, 32]: 85; Pre-emerge crop damage RICE (phytotoxicity rating) [26, 31]: 70; Post-emerge Herbicidal Activity AML (phytotoxicity rating) [29]: 80; Post-emerge Herbicidal Activity DIS (phytotoxicity rating) [30]: 99

Reference: patent publication US6770596B1, “Fused tricyclic compounds, process for their preparation, and herbicidal compositions containing them” (Ishihara Sangyo Kaisha Ltd., priority 2002, dated 2004)
